According to patent US9162992B2, “Compounds and compositions for treatment of breathing control disorders or diseases” (GALLEON PHARMACEUTICALS, INC., priority 2010, dated 2015):

How the values were obtained:
[1] = Stability as a function of pH 2-6 (1 mg/mL, 0.25 mg/mL at pH 6; 10 mM citric acid and glycine); type: physicochemical; design: growth in impurities / Assay: unit not given here; conditions: for Impurities: in %
Description: Buffer solutions containing ca. 10 mM each of citric acid and glycine in the pH range 2-6 were prepared by titrating 250 mL of a single stock containing both buffer agents with 1N NaOH/1N HCl and removing 50 mL aliquots at predetermined pH values. XXXVI solutions at 1 mg/mL were prepared in buffers of pH 2-5 by dissolving ˜25 mg of XXXVI in ˜23 mL of a given buffer, adjusting the pH to the target and making up the volume to 25.0 mL in a volumetric flask. (XXXVI) solution at pH 6 was prepared similarly, but at a lower drug concentration of 0.25 mg/mL using 6.68 mg of (XXXVI).
Each of the buffered XXXV solutions was filtered through a 0.2 μm polyether sulfone syringe filter into a volumetric flask, which had been previously rinsed with 70% ethanol and dried in a laminar flow hood. Following filtration, each buffered (XXXV) solution was split into 10 aliquots (9 aliquots of 2.5 mL each and 1 aliquot of 2 mL) in 5 mL serum vials previously rinsed with 70% ethanol and dried in a laminar flow hood. Filtration and preparation of aliquots were performed in a laminar flow hood. The 2 mL aliquot of each buffered (XXXV) solution was submitted for T0 analysis (HPLC assay and related substances).
Of the nine 2.5 mL aliquots, three aliquots were stored at each 40° C. and 60° C., two aliquots were stored at 25° C. and one aliquot was stored at −70° C. Samples stored at 40° C. and at 60° C. were evaluated for physical appearance, pH, assay and related substances after 1 week, 2 weeks and 4 weeks of storage. Samples at 25° C. and −70° C. served as controls to be analyzed if necessary.

[2] = system: opioid-induced respiratory depression; experiment: Opioid-induced respiratory depression in the monkey; type: in vivo, Macaca fascicularis; conditions: 0.20 mg/kg/min 5 min, then 0.10 mg/kg/min 10 min
Description: Juvenile macaques (four-year-old Macaca fascicularis, 2 to 5 kg, n=13) were used for the study. Animal husbandry was conducted under USDA guidelines and the protocols were approved by the Institutional Animal Care and Use Committee of East Carolina University.
Anesthesia was induced with 5% isoflurane and then maintained with 1.5 to 2% isoflurane (100% O2, 2 L/min). Antebrachial veins were cannulated. Vivometrics Lifeshirts (Ventura, Calif.) were fitted to the animals for monitoring respiratory function by inductance plethysmography. Abdomen and rib cage deflections were calibrated using the Qualitative Diagnostic Calibration (QDC) procedure, and tidal volume was normalized to 15 mL, which represented a typical tidal volume for these animals as previously measured using conventional techniques. Heart rate was monitored continuously by 3-lead ECG.
ETCO2 was measured via a neonatal nasal cannula connected to a microstream CO2 sensor (Cardell monitor, Model 9405). SpO2 and HR were monitored by pulse oximetry using a reflectance probe (Nelcor Max-Fast) positioned on the inner aspect of the upper arm. HR was also determined from the ECG allowing measurement when animal activity compromised the integrity of pulse oximetry signals. BP was measured in anesthetized animals using a cuff positioned on the ankle. […]

CCCNc1nc(NCCC)nc(N(C)OC)n1 [XXXV, N-(4,6-Bis-n-propylamino-[1,3,5]triazin-2-yl)-N,O-dimethyl-hydroxylamine]
physical appearance ([1]; all samples, up to 4 weeks at 40° C. and 60° C.): remained clear, colorless and particle free
stability at pH 2 compared to remaining pH values ([1]; assay and impurities data): significantly less stable at pH 2
growth in impurities ([1]; pH 3-6, 40° C. and 60° C.): > 0.2
Assay ([1]; target pH 2, 40° C. 1 wk): 0.997
pH ([1]; target pH 2, 40° C. 1 wk): 2.02
Impurities ([1]; target pH 2, 40° C. 1 wk): 0.58
Assay ([1]; target pH 2, 40° C. 2 wk): 0.975
pH ([1]; target pH 2, 40° C. 2 wk): 1.98
Impurities ([1]; target pH 2, 40° C. 2 wk): 1.48
Assay ([1]; target pH 2, 40° C. 4 wk): 0.970
pH ([1]; target pH 2, 40° C. 4 wk): 2.00
Impurities ([1]; target pH 2, 40° C. 4 wk): 2.49
Assay ([1]; target pH 2, 60° C. 1 wk): 0.929
pH ([1]; target pH 2, 60° C. 1 wk): 2.00
Impurities ([1]; target pH 2, 60° C. 1 wk): 3.83
Assay ([1]; target pH 2, 60° C. 2 wk): 0.754
pH ([1]; target pH 2, 60° C. 2 wk): 1.99
Impurities ([1]; target pH 2, 60° C. 2 wk): 9.89
Assay ([1]; target pH 2, 60° C. 4 wk): 0.754
pH ([1]; target pH 2, 60° C. 4 wk): 2.01
Impurities ([1]; target pH 2, 60° C. 4 wk): 14.34
Assay ([1]; target pH 2, initial): 1.02
pH ([1]; target pH 2, initial): 1.96
Assay ([1]; target pH 3, 40° C. 1 wk): 0.984
pH ([1]; target pH 3, 40° C. 1 wk): 3.05
Assay ([1]; target pH 3, 40° C. 2 wk): 0.987
pH ([1]; target pH 3, 40° C. 2 wk): 3.05
Impurities ([1]; target pH 3, 40° C. 2 wk): 0.19
Assay ([1]; target pH 3, 40° C. 4 wk): 0.991
pH ([1]; target pH 3, 40° C. 4 wk): 3.06
Impurities ([1]; target pH 3, 40° C. 4 wk): 0.41
Assay ([1]; target pH 3, 60° C. 1 wk): 0.971
pH ([1]; target pH 3, 60° C. 1 wk): 3.07
Impurities ([1]; target pH 3, 60° C. 1 wk): 0.71
Assay ([1]; target pH 3, 60° C. 2 wk): 0.952
pH ([1]; target pH 3, 60° C. 2 wk): 3.03
Impurities ([1]; target pH 3, 60° C. 2 wk): 1.20
Assay ([1]; target pH 3, 60° C. 4 wk): 0.952
pH ([1]; target pH 3, 60° C. 4 wk): 3.07
Impurities ([1]; target pH 3, 60° C. 4 wk): 2.19
Assay ([1]; target pH 3, initial): 0.984
pH ([1]; target pH 3, initial): 3.02
Assay ([1]; target pH 4, 40° C. 1 wk): 0.999
pH ([1]; target pH 4, 40° C. 1 wk): 3.94
Assay ([1]; target pH 4, 40° C. 2 wk): 1.006
pH ([1]; target pH 4, 40° C. 2 wk): 3.96
Impurities ([1]; target pH 4, 40° C. 2 wk): 0.17
Assay ([1]; target pH 4, 40° C. 4 wk): 1.012
pH ([1]; target pH 4, 40° C. 4 wk): 3.96
Impurities ([1]; target pH 4, 40° C. 4 wk): 0.22
Assay ([1]; target pH 4, 60° C. 1 wk): 0.992
pH ([1]; target pH 4, 60° C. 1 wk): 3.94
Assay ([1]; target pH 4, 60° C. 2 wk): 0.979
pH ([1]; target pH 4, 60° C. 2 wk): 3.96
Impurities ([1]; target pH 4, 60° C. 2 wk): 0.52
Assay ([1]; target pH 4, 60° C. 4 wk): 0.979
pH ([1]; target pH 4, 60° C. 4 wk): 3.97
Impurities ([1]; target pH 4, 60° C. 4 wk): 1.02
Assay ([1]; target pH 4, initial): 1.01
pH ([1]; target pH 4, initial): 4.00
Assay ([1]; target pH 5, 40° C. 1 wk): 0.989
pH ([1]; target pH 5, 40° C. 1 wk): 4.90
Assay ([1]; target pH 5, 40° C. 2 wk): 0.992
pH ([1]; target pH 5, 40° C. 2 wk): 4.95
Impurities ([1]; target pH 5, 40° C. 2 wk): 0.26
Assay ([1]; target pH 5, 40° C. 4 wk): 0.977
pH ([1]; target pH 5, 40° C. 4 wk): 4.97
Assay ([1]; target pH 5, 60° C. 1 wk): 0.977
pH ([1]; target pH 5, 60° C. 1 wk): 4.92
Assay ([1]; target pH 5, 60° C. 2 wk): 0.947
pH ([1]; target pH 5, 60° C. 2 wk): 4.93
Impurities ([1]; target pH 5, 60° C. 2 wk): 0.62
Assay ([1]; target pH 5, 60° C. 4 wk): 0.947
pH ([1]; target pH 5, 60° C. 4 wk): 4.98
Impurities ([1]; target pH 5, 60° C. 4 wk): 1.10
Assay ([1]; target pH 5, initial): 1.01
pH ([1]; target pH 5, initial): 5.03
Assay ([1]; target pH 6, 40° C. 1 wk): 0.257
pH ([1]; target pH 6, 40° C. 1 wk): 5.88
Assay ([1]; target pH 6, 40° C. 2 wk): 0.253
pH ([1]; target pH 6, 40° C. 2 wk): 6.02
Impurities ([1]; target pH 6, 40° C. 2 wk): 0.25
Assay ([1]; target pH 6, 40° C. 4 wk): 0.251
pH ([1]; target pH 6, 40° C. 4 wk): 5.98
Impurities ([1]; target pH 6, 40° C. 4 wk): 0.28
Assay ([1]; target pH 6, 60° C. 1 wk): 0.247
pH ([1]; target pH 6, 60° C. 1 wk): 5.87
Impurities ([1]; target pH 6, 60° C. 1 wk): 0.56
Assay ([1]; target pH 6, 60° C. 2 wk): 0.234
pH ([1]; target pH 6, 60° C. 2 wk): 6.03
Impurities ([1]; target pH 6, 60° C. 2 wk): 0.87
Assay ([1]; target pH 6, 60° C. 4 wk): 0.234
pH ([1]; target pH 6, 60° C. 4 wk): 6.01
Impurities ([1]; target pH 6, 60° C. 4 wk): 1.65
Assay ([1]; target pH 6, initial): 0.260
pH ([1]; target pH 6, initial): 6.05

CCCNc1nc(NCCC)nc(N(C)OC)n1.O=S(=O)(O)O [XXXVI, N-(4,6-Bis-n-propylamino-[1,3,5]triazin-2-yl)-N,O-dimethyl-hydroxylamine hydrogen sulfate]
end-tidal carbon dioxide increases caused by the opioid [2]: full reversal
minute ventilation [2]: increased minute ventilation
